Reference: article PMC10155203 (Molecular Pharmaceutics, 2023)
Where “and” joins values, the source holds several entries; their conditions need not be identical. Identical values can stand only once. Like-named read-outs stand apart in the source and are kept apart here.

Tests used:
[1] = Study 2: PPI (rabeprazole) interaction clinical study, single oral dose of encorafenib, plasma PK and safety; type: in vivo, human; conditions: for Tmax: median (range); for Vd/F: read-out: Vz/F; for CL/F: mean ± SD
Experimental: Both studies were conducted at the Celerion Clinical Research Unit in Lincoln, NE. The trial protocols and informed consent documentation were reviewed and approved by the institutional review boards at the center. These studies were conducted in compliance with the ethical principles originating in or derived from the Declaration of Helsinki and in compliance with all International Council for Harmonization Good Clinical Practice Guideline.
The AEs described were consistent with the known safety profile of encorafenib.
Additionally, participants were instructed not to crush, split, or chew the study drug. […]
The actual sample collection times were used for the PK parameter analysis.
The overall safety profile was characterized by laboratory test abnormalities, physical examination, vital signs, ECGs, and AEs. […] Triplicate ECGs were also measured at the end of the studies or upon early termination.
These were back-transformed to obtain the GMRs and corresponding 90% CIs on the original scale. The ratios were expressed as a percentage relative to the reference treatment.

CYP2C19 = system: CYP2C19; parameters: method as in PMID 27693678; conditions: fitted using in vivo data; cited from earlier work
[2] = cited from earlier work; for median Tmax: humans, single oral dose
CYP2D6 = conditions: cited from earlier work
[3] = TIM-1 dynamic in vitro gastrointestinal model, bioaccessibility of 75 mg encorafenib capsule; type: in vitro ADME; conditions: for time of maximum bioaccessibility / maximum bioaccessibility / total bioaccessibility (cumulative): TIM-1, 75 mg capsule; for maximum bioaccessibility / total bioaccessibility (cumulative): mean ± SD
Source text: To investigate the bioaccessibility under the different test conditions (i.e., in the fasted state, fed state, and with the use of a PPI), a dynamic in vitro GI model TIM-1 (TNO; Zeist, Netherlands) was used, which has previously been described and detailed pictorially.[25],[26] The bioaccessibility of the drug refers to the amount of drug available for drug absorption. The two filters, which are located at the end of the jejunal and ileal compartment, will capture the dissolved fraction of drug as released from the drug formulation with the help of a filtration process. The dissolved fraction of drug is the sum of drug molecules dissolved in the aqueous media (i.e., molecularly dissolved and encapsulated in the colloidal structures such as micelles). The TIM-1 model is a complex in vitro GI simulator that models the dynamic processes and conditions present in the lumen of the gastric and small intestinal regions of the GI tract. The TIM-1 system consists of a stomach, duodenum, jejunum, and ileum compartment. For more information about the setup of the TIM-1 model, the reader is referred to external literature.[27] After dosing the drug product to the stomach compartment, the computer-controlled system controls the transit of the drug formulation to the intestinal compartments at a rate that reflects the in vivo transit conditions observed in fasted, fed, and PPI states. At the end of the jejunal and ileal compartments, a lipid filtration system is installed to separate the dissolved amount of drug from these compartments and evaluate the amount of drug available for drug absorption (i.e., the bioaccessible fraction of drug). The TIM-1 model is programmed to evaluate drug product behavior in fasted, fed, and PPI conditions.[19],[28],[29] Depending on the chosen clinical condition (PPI, fed), specific experimental protocol is executed. Fasted state is simulated by implementing a predefined pH curve controlled by secretion of 1 M HCl into the gastric compartment. The gastric pH starts at pH 3 (including the coadministered glass of water) and will decrease to pH 1.7 as gastric secretion will acidify the gastric content. When the fasted PPI state is simulated, gastric content is adjusted to pH 4.5, and only water is secreted into the stomach compartment to maintain constant pH. During fed state studies, gastric pH starts at pH 6.5 and will decrease to basic fasted conditions (pH 1.7) as the food empties the stomach, and gastric secretion will be activated. Due to secretion and transit, the volumes and pH remain constant in the intestinal compartments. […] For more information about the TIM-1 settings and the determination of bioaccessible fraction, the reader is referred to external literature.[27],[28] The bioaccessible fraction was determined by withdrawing samples from the filtrate (at the end of the jejunum and ileum compartment) and these samples were, subsequently, analyzed by HPLC. The expression of the bioaccessible fraction can be depicted in a cumulative or noncumulative order to observe how much drug will become available as a function of time. […]

[4] = parameters: method as in PMID 27693678; conditions: estimated using PKPlus module, cited from earlier work
[5] = study 2, encorafenib 100 mg + rabeprazole
[6] = study 2, encorafenib 100 mg + rabeprazole vs alone
[7] = study 2, encorafenib 100 mg alone
[8] = study 2, encorafenib 300 mg alone
[9] = single radiolabeled dose of 100 mg

SMILES: COC(=O)N[C@@H](C)CNc1nccc(-c2cn(C(C)C)nc2-c2cc(Cl)cc(NS(C)(=O)=O)c2F)n1 [encorafenib, Encorafenib]
- tolerability ([1]; 300 mg dose compared with 100 mg dose, healthy participants): tolerated with more difficulty
- AUC(0-inf) ([1]; human, plasma, oral, 100 mg): 4140 ng·h/mL
- AUC(0-t) ([1]; human, plasma, oral, 100 mg): 4120 ng·h/mL
- Cmax ([1]; human, plasma, oral, 100 mg): 1040 ng/mL
- Tmax ([1]; human, plasma, oral, 100 mg, study 2, encorafenib 100 mg alone, read-out: Tmax): 1.5 h
- Vd/F ([1]; human, plasma, oral, 100 mg): 247 ± 208 L
- half-life ([1]; human, plasma, oral, 100 mg, read-out: t1/2 (converted)): 7.53 ± 7.58 h
- AUC(0-inf) ([1]; human, plasma, oral, 300 mg): 14800 ng·h/mL
- AUC(0-t) ([1]; human, plasma, oral, 300 mg): 14700 ng·h/mL
- Cmax ([1]; human, plasma, oral, 300 mg): 3900 ng/mL
- Tmax ([1]; human, plasma, oral, 300 mg, study 2, encorafenib 300 mg alone, read-out: Tmax): 1.5 h
- Vd/F ([1]; human, plasma, oral, 300 mg): 470 ± 339 L
- half-life ([1]; human, plasma, oral, 300 mg, read-out: t½ (converted)): 15.9 ± 11.6 h
- Tmax ([1]; human, plasma, oral, study 2, encorafenib 100 mg + rabeprazole, read-out: Tmax): 2 h
- changes in vital signs, laboratory values, or ECG measurements ([1]; study 2): No clinically significant changes
- participants reporting feeling hot ([1]; study 2): 53%
- participants reporting flushing ([1]; study 2): 80%
- participants reporting headache ([1]; study 2): 93%
- number of AEs of grade 2/moderate severity ([1]; study 2 (headache, nausea, myalgia)): 3 AEs
- participants reporting AEs [1, 5]: 82%
- mean change in AUCinf with PPI coadministration [1, 6]: < 10%
- mean change in AUClast with PPI coadministration [1, 6]: < 10%
- mean change in Cmax with PPI coadministration [1, 6]: < 10%
- number of AEs reported ([1]; study 2, encorafenib 100 mg + rabeprazole, 11 participants): 23 AEs
- CL/F [1, 5]: 26.31 ± 9.1417 L/h
- participants reporting AEs [1, 7]: 90%
- number of AEs reported ([1]; study 2, encorafenib 100 mg alone, 10 participants): 24 AEs
- CL/F [1, 7]: 25.33 ± 8.0601 L/h
- Tmax [1, 7]: 1.503 (1.01, 2.00) h
- participants reporting AEs [1, 8]: 100%
- number of AEs reported ([1]; study 2, encorafenib 300 mg alone, 15 participants): 106 AEs
- CL/F [1, 8]: 20.59 ± 3.9043 L/h
- participants who discontinued due to an AE ([1]; study 2, of 15 participants): 1 participants
- participants reporting AEs ([1]; study 2, overall): 15 of 15
- gut CYP2C19 Km (CYP2C19): 7.51 mg/L
- gut CYP2C19 Vmax (CYP2C19): 0.00504 mg/s
- liver CYP2C19 Km (CYP2C19): 7.51 mg/L
- liver CYP2C19 Vmax (CYP2C19): 0.00504 mg/s
- dose proportionality ([2]; dose range of 50 to 700 mg QD after a single dose): approximately dose proportional
- apparent volume of distribution ([2]; geometric mean (coefficient of variation 70%)): 164 L
- median Tmax ([2]; fasted state): approximately 2 h
- median Tmax ([2]; fed state): ~4 h
- dose absorbed ([2]; oral): at least 86%
- administered dose recovered in feces [2, 9]: 47%
- administered dose recovered in feces unchanged [2, 9]: 5%
- administered dose recovered in urine [2, 9]: 47%
- administered dose recovered in urine unchanged [2, 9]: 2%
- share of metabolism by CYP2D6 (CYP2D6): 1%
- time of maximum bioaccessibility ([3]; PPI): 1.5 h
- maximum bioaccessibility ([3]; PPI): 18% and 18 ± 4%
- total bioaccessibility (cumulative) ([3]; PPI): 83% and 83 ± 6%
- time of maximum bioaccessibility ([3]; fasted): 1.5 h
- maximum bioaccessibility ([3]; fasted): 16% and 16 ± 4%
- total bioaccessibility (cumulative) ([3]; fasted): 77% and 77 ± 4%
- time of maximum bioaccessibility ([3]; fed): 4 h
- maximum bioaccessibility ([3]; fed): 13% and 13 ± 0%
- total bioaccessibility (cumulative) ([3]; fed): 80% and 80 ± 1%
- bioaccessible fraction ([3]; TIM-1, in the 3 conditions (fasted, fed, PPI)): ≥ 80%
- clearance ([4]; 2-compartmental, 100 mg fasted): 16.08 L/h[31]
- K10 [4]: 0.197 h^–1[31]
- K12 [4]: 0.173 h^–1[31]
- K21 [4]: 0.016 h^–1[31]
